Legend:
Orexin (OX1/OX2) = experiment: Aequorin assays, orexin receptors; assay type: cell-based; settings: CHO-AEQ, human receptors
Protocol: (§1) Receptor agonist/[…] assays were performed using 2-CF3-sergide. Table 1 summarizes the cell lines (CHO-K1/HEK293 transfected with relevant human receptor) and the assays performed to detect any agonist or antagonist activity.
(§2) Aequorin assays were conducted to monitor activity for 8′OH-2CF3-dihydroergotamine (8′OH-2CF3-DHE) against the receptors indicated in Table 1 above (except for mGlu3 and mGlu5). CHO-K1 cells coexpressing mitochondrial apoaequorin and the recombinant human receptor of interest were grown to mid-log phase in culture media without antibiotics and then detached with PBS-EDTA, centrifuged and resuspended in assay buffer (DMEM/HAM's F12 with HEPES, without phenol red+0.1% BSA, protease free) at a concentration of 1×10^6 cell/mL. […]
(§3) 50 μL of the cell suspension was mixed with 50 μL of test or reference agonist in a 96-well plate. The resulting emission of light was recorded using Hamamatsu Functional Drug Screening System 6000 (FDSS 6000) luminometer. […]
(§4) To standardize the emission of recorded light (and determine of the “100% signal”) across plates and across different experiments, some wells contained 100 μM digitonin or a saturating concentration of ATP (20 μM).

Neurokinin (NK1/NK2/NK3) = experiment: Aequorin assays, neurokinin receptors; assay type: cell-based; settings: CHO-AEQ, human receptors, antagonist mode; cell names OP2; read-out: Activity (Antagonism: IC50), OP2, in row Neurokinin (NK1/NK2/NK3)
Protocol: as §1, §2, §3, §4

Serotonin 5-HT2A = target: T1, Serotonin 5-HT2A (Homo sapiens, UniProt P28223); experiment: Aequorin assay, serotonin 5-HT2A; assay type: cell-based; settings: CHO-K1 mAeq Gα16, human receptor, agonist mode; read-out: Activity (Agonism: EC50), 5-HT2A
T1 construct: expressed in transfected cells; host or cells: CHO-K1 mAeq Gα16
Protocol: as §1, §2, §3, §4

Dopamine D3 = target: T2, Dopamine D3 (Homo sapiens, UniProt P35462); experiment: GTPγ[35S] assay, dopamine D3; assay type: biochemical
T2 construct: expressed in transfected cells; host or cells: CHO-K1 (membrane extracts)
Protocol: as §1
(§5) GTPγS studies were conducted to monitor agonist activity for 8′OH-2CF3-dihydroergotamine (8′OH-2CF3-DHE) against the receptors indicated in Table 1 above. Reagents used were the following: Assay buffer (20 mM HEPES, pH 7.4; 100 mM NaCl; 10 μg/mL saponin; 30 mM MgCl2); Membranes (recombinant human receptor membrane extracts were thawed on ice and diluted in assay buffer to give 1000 μg/mL ([…]) and kept on ice); GDP (diluted in assay buffer to give 30 μM solution (3 μM final concentration); beads (PVT-WGA (Amersham, RPNQ001), diluted in assay buffer at 25 mg/mL (0.25 mg/10 μL)); GTPγ^35S (Perkin Elmer, NEG030X), diluted in assay buffer to give 0.1 nM (final concentration); and ligand (agonist/antagonist diluted in assay buffer).
(§6) Membranes were mixed with GDP (1:1) and incubated for at least 15 minutes on ice. In parallel GTPγ^35S was mixed with the beads (1:1) just before starting the reaction. […] The plates were then centrifuged for 10 minutes at 2000 rpm and incubated at room temperature for 1 hour and counted for 1 min/well with a Perkin Elmer TopCount reader.

Somatostatin (SST1~SSTS) = experiment: GTPγ[35S] assays, somatostatin receptors; assay type: biochemical; settings: CHO-K1 human receptor membranes
Protocol: as §1, §5, §6

Serotonin 5-HT1D = target: T3, Serotonin 5-HT1D (Homo sapiens, UniProt P28221); experiment: GTPγ[35S] assay, serotonin 5-HT1D; assay type: biochemical; settings: CHO-K1 human receptor membranes, agonist mode; read-out: Activity (Agonism: EC50), 5-HT1D
T3 construct: expressed in transfected cells; host or cells: CHO-K1 (membrane extracts)
Protocol: as §1, §5, §6

Opioid (OP1/OP2/OP3) = experiment: GTPγ[35S] assays, opioid receptors; assay type: biochemical; settings: CHO-K1 human receptor membranes
Protocol: as §1, §5, §6

Serotonin 5-HT2B = target: T4, Serotonin 5-HT2B (Homo sapiens, UniProt P41595); experiment: Aequorin assay, serotonin 5-HT2B; assay type: cell-based
T4 construct: expressed in transfected cells; host or cells: CHO-K1 mAeq Gα16
Protocol: as §1, §2, §3, §4

Serotonin 5-HT3 = target: T5, Serotonin 5-HT3 (Homo sapiens, UniProt P46098); experiment: Aequorin assay, serotonin 5-HT3; assay type: cell-based; settings: HEK-293 mAeq, human receptor, antagonist mode; read-out: Activity (Antagonism: IC50), 5-HT3
T5 construct: expressed in transfected cells; host or cells: HEK-293 mAeq
Protocol: as §1, §2, §3, §4

Serotonin 5-HT1A = target: T6, Serotonin 5-HT1A (Homo sapiens, UniProt P08908); experiment: GTPγ[35S] assay, serotonin 5-HT1A; assay type: biochemical
T6 construct: expressed in transfected cells; host or cells: CHO-K1 (membrane extracts)
Protocol: as §1, §5, §6

Dopamine D1 = target: T7, Dopamine D1 (Homo sapiens, UniProt P21728); experiment: cAMP HTRF assay, dopamine D1; assay type: cell-based; settings: CHO-K1, human receptor, agonist mode; read-out: Activity (Agonism: EC50), D1
T7 construct: expressed in transfected cells; host or cells: CHO-K1
Protocol: as §1
(§7) cAMP HTRF (Gs) studies were conducted to monitor activity for 8′OH-2CF3-dihydroergotamine (8′OH-2CF3-DHE) against the receptors indicated in Table 1 above. […] Lysis buffer was added and after a 1 hour incubation, cAMP concentrations was determined according to the manufacturer specification with the HTRF kit. […] Lysis buffer was added and after a 1 hour incubation, cAMP concentrations were determined according to the manufacturer specification, with the HTRF kit.
as §7, with “(Gi)” for “(Gs)”

Adrenergic α2B = target: T8, Adrenergic α2B (Homo sapiens, UniProt P18089); experiment: GTPγ[35S] assay, adrenergic α2B; assay type: biochemical; settings: CHO-K1 human receptor membranes, antagonist mode; read-out: Activity (Antagonism: IC50), Adrenergic a2B
T8 construct: expressed in transfected cells; host or cells: CHO-K1 (membrane extracts)
Protocol: as §1, §5, §6

Serotonin 5-HT1F = target: T9, Serotonin 5-HT1F (Homo sapiens, UniProt P30939); experiment: cAMP HTRF assay, serotonin 5-HT1F; assay type: cell-based; settings: CHO-K1, human receptor, agonist mode; read-out: Activity (Agonism: EC50), 5-HT1F
T9 construct: expressed in transfected cells; host or cells: CHO-K1
Protocol: as §1, §7
as §7, with “(Gi)” for “(Gs)”

Calcitonin (CGRP) = target: T10, Calcitonin (CGRP) (Homo sapiens, UniProt O60894+Q16602); experiment: Aequorin assay, CGRP receptor; assay type: cell-based; settings: CHO-AEQ
T10 construct: expressed in transfected cells; host or cells: CHO-AEQ
Protocol: as §1, §2, §3, §4

Adrenergic α2C = target: T11, Adrenergic α2C (Homo sapiens, UniProt P18825); experiment: GTPγ[35S] assay, adrenergic α2C; assay type: biochemical; settings: CHO-K1 human receptor membranes, antagonist mode; read-out: Activity (Antagonism: IC50), Adrenergic a2C
T11 construct: expressed in transfected cells; host or cells: CHO-K1 (membrane extracts)
Protocol: as §1, §5, §6

Adenosine A2a = target: T12, Adenosine A2a (Homo sapiens, UniProt P29274); experiment: cAMP HTRF assay, adenosine A2a; assay type: cell-based; settings: HEK293, human receptor
T12 construct: expressed in transfected cells
Protocol: as §1, §7
as §7, with “(Gi)” for “(Gs)”

Calcitonin (AM1/AM2) = experiment: cAMP HTRF assays, calcitonin AM1/AM2 receptors; assay type: cell-based; settings: CHO-K1, human receptors
Protocol: as §1, §7
as §7, with “(Gi)” for “(Gs)”

Dopamine D4 = target: T13, Dopamine D4 (Homo sapiens, UniProt P21917); experiment: GTPγ[35S] assay, dopamine D4; assay type: biochemical
T13 construct: expressed in transfected cells; host or cells: CHO-K1 (membrane extracts)
Protocol: as §1, §5, §6

[1] = tested on: VIP/PACAP (PAC1/VPAC/VPAC2); experiment: Aequorin assays, VIP/PACAP receptors; assay type: cell-based; settings: CHO-AEQ, human receptors
Protocol: as §1, §2, §3, §4

Adrenergic α1A = target: T14, Adrenergic α1A (Homo sapiens, UniProt P35348); experiment: Aequorin agonist/antagonist assay, adrenergic α1A; assay type: cell-based; settings: CHO-K1 mAeq, human receptor, antagonist mode; read-out: Activity (Antagonism: IC50), Adrenergic a1A
T14 construct: expressed in transfected cells; host or cells: CHO-K1 mAeq
Protocol: as §1, §2, §3, §4

Adrenergic α1D = target: T15, Adrenergic α1D (Homo sapiens, UniProt P25100); experiment: Aequorin agonist/antagonist assay, adrenergic α1D; assay type: cell-based; settings: CHO-K1 mAeq, human receptor, antagonist mode; read-out: Activity (Antagonism: IC50), Adrenergic a1D
T15 construct: expressed in transfected cells; host or cells: CHO-K1 mAeq
Protocol: as §1, §2, §3, §4

Serotonin 5-HT1B = target: T16, Serotonin 5-HT1B (Homo sapiens, UniProt P28222); experiment: GTPγ[35S] assay, serotonin 5-HT1B; assay type: biochemical; settings: CHO-K1 human receptor membranes, agonist mode; read-out: Activity (Agonism: EC50), 5-HT1B
T16 construct: expressed in transfected cells; host or cells: CHO-K1 (membrane extracts)
Protocol: as §1, §5, §6

Adrenergic α2A = target: T17, Adrenergic α2A (Homo sapiens, UniProt P08913); experiment: GTPγ[35S] assay, adrenergic α2A; assay type: biochemical; settings: CHO-K1 human receptor membranes, antagonist mode; read-out: Activity (Antagonism: IC50), Adrenergic a2A
T17 construct: expressed in transfected cells; host or cells: CHO-K1 (membrane extracts)
Protocol: as §1, §5, §6

Dopamine D2L = target: T18, Dopamine D2L (Homo sapiens, UniProt P14416); experiment: GTPγ[35S] assay, dopamine D2L; assay type: biochemical
T18 construct: expressed in transfected cells; host or cells: CHO-K1 (membrane extracts)
Protocol: as §1, §5, §6

[2] = tested on: Cholecystokinin (CCK1/CCK2); experiment: Aequorin assays, cholecystokinin receptors; assay type: cell-based; settings: CHO-AEQ, human receptors
Protocol: as §1, §2, §3, §4

mGlu7 = target: T19, mGlu7 (Homo sapiens, UniProt Q14831); experiment: cAMP HTRF assay, mGluR7; assay type: cell-based; settings: CHO-K1, human receptor, agonist mode; read-out: Activity (Agonism: EC50), mGlu7
T19 construct: expressed in transfected cells; host or cells: CHO-K1
Protocol: as §1, §7
as §7, with “(Gi)” for “(Gs)”

Adrenergic α1B = target: T20, Adrenergic α1B (Homo sapiens, UniProt P35368); experiment: Aequorin agonist/antagonist assay, adrenergic α1B; assay type: cell-based; settings: CHO-K1 mAeq, human receptor, antagonist mode; read-out: Activity (Antagonism: IC50), Adrenergic a1B
T20 construct: expressed in transfected cells; host or cells: CHO-K1 mAeq
Protocol: as §1, §2, §3, §4

T4 sequence (P41595 whole entry): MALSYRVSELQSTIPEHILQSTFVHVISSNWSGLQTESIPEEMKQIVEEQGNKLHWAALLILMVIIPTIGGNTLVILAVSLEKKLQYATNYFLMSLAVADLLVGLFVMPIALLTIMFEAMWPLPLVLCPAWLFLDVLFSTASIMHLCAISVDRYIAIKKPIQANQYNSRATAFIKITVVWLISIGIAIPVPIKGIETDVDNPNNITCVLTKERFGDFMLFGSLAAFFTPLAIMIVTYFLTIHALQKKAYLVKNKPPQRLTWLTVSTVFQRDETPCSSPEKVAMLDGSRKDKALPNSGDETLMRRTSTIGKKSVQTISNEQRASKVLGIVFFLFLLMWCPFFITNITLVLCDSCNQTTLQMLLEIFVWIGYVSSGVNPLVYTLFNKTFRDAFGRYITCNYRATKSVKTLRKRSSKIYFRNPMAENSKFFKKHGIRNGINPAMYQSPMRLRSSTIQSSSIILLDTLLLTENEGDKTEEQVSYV
T18 sequence (P14416 whole entry): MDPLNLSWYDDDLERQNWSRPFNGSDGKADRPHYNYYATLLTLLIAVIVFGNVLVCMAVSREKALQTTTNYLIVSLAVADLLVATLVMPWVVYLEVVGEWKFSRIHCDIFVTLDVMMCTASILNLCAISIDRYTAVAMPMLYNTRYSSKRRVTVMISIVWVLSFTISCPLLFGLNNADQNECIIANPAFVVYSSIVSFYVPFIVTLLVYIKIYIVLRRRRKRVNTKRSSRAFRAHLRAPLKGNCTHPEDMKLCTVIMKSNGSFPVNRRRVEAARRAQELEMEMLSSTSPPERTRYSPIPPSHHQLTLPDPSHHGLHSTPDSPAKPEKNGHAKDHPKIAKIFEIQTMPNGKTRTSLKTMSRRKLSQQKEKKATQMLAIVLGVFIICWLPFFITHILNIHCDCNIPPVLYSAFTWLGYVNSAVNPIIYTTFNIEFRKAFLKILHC
T2 sequence (P35462 whole entry): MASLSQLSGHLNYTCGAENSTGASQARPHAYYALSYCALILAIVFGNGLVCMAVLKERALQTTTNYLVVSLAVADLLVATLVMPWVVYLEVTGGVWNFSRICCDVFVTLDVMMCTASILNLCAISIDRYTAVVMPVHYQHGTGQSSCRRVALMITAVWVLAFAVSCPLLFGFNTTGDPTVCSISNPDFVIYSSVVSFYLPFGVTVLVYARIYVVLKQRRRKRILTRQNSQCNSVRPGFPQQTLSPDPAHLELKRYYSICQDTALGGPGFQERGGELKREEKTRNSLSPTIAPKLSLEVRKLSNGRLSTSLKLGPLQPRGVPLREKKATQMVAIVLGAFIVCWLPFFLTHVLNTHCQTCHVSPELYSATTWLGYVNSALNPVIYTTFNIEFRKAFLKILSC
T6 sequence (P08908 whole entry): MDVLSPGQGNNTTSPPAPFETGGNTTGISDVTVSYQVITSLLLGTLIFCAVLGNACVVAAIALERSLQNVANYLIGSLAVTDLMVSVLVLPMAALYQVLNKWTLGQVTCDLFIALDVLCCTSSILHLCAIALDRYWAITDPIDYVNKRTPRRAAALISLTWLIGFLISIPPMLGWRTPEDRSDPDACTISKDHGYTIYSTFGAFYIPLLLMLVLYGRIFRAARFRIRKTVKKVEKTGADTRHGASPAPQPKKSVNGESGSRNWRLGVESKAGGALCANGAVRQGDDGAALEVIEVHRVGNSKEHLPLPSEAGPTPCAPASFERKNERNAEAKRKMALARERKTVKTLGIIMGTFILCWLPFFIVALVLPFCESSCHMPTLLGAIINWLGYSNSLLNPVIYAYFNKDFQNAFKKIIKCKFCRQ
T13 sequence (P21917 whole entry): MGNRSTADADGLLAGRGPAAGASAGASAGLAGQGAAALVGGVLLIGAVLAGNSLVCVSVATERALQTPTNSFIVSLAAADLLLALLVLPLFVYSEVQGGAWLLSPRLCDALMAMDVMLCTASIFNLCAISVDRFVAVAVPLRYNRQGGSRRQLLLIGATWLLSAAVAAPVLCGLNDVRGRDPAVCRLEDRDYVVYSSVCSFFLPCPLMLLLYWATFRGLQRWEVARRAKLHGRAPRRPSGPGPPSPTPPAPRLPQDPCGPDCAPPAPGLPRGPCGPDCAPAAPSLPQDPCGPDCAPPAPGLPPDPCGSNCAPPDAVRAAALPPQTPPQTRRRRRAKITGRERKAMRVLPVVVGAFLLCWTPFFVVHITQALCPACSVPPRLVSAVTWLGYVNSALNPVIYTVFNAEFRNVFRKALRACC
T3 sequence (P28221 whole entry): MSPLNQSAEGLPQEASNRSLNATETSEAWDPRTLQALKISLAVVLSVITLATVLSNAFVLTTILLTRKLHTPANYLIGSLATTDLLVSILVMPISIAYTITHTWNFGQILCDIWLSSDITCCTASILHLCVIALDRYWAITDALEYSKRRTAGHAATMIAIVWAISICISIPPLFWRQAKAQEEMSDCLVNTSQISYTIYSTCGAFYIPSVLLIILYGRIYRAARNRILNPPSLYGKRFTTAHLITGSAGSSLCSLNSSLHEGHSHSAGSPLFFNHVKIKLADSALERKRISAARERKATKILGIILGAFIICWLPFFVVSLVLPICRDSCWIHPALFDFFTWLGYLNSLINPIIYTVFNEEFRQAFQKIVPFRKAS
T19 sequence (Q14831 35-915): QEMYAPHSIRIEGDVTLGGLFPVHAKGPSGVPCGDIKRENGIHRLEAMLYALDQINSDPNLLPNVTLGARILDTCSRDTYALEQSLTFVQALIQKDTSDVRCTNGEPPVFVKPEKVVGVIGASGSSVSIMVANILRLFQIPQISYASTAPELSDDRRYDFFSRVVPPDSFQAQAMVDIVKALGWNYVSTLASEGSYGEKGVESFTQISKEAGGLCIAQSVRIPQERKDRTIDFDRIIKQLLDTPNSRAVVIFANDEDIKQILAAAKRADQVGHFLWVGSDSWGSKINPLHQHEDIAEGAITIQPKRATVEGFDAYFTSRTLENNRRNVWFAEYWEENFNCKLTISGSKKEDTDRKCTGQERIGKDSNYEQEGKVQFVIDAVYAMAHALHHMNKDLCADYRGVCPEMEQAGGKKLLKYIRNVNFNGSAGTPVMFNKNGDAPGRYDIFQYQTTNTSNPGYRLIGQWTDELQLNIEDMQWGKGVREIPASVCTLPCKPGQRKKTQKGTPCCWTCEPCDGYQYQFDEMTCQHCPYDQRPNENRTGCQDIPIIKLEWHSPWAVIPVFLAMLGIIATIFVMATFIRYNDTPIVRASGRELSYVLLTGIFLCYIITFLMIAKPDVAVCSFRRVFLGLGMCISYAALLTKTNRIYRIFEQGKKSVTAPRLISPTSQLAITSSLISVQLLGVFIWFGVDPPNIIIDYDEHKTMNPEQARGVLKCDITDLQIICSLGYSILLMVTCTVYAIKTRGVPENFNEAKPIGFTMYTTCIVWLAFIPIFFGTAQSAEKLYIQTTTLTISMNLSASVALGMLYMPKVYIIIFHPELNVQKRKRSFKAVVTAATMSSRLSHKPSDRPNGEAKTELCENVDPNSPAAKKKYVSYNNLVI
T5 sequence (P46098 24-478): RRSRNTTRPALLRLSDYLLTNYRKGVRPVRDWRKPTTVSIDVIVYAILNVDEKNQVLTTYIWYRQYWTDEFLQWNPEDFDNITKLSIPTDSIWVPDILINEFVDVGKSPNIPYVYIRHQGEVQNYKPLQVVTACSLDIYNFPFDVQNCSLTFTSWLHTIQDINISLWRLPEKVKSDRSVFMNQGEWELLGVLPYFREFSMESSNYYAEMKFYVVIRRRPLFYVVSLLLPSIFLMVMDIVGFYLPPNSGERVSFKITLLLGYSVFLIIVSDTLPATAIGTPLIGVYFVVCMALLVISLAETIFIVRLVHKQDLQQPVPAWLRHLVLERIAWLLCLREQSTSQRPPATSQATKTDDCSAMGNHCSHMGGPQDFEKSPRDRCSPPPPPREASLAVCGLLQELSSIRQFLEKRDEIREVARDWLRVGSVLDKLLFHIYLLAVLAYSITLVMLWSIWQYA
T17 sequence (P08913 whole entry): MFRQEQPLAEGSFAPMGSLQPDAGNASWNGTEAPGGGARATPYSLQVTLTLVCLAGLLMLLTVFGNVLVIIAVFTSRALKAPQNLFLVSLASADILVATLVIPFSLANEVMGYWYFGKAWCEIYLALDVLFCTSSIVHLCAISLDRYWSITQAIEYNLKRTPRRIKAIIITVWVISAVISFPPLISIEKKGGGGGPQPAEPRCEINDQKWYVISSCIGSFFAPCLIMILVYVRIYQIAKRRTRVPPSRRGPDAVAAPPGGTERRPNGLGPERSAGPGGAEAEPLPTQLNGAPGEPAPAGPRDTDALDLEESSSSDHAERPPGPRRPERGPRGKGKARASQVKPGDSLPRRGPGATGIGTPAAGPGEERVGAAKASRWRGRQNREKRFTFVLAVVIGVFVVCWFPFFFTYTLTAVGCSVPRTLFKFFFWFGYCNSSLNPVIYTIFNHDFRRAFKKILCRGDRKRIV
T11 sequence (P18825 whole entry): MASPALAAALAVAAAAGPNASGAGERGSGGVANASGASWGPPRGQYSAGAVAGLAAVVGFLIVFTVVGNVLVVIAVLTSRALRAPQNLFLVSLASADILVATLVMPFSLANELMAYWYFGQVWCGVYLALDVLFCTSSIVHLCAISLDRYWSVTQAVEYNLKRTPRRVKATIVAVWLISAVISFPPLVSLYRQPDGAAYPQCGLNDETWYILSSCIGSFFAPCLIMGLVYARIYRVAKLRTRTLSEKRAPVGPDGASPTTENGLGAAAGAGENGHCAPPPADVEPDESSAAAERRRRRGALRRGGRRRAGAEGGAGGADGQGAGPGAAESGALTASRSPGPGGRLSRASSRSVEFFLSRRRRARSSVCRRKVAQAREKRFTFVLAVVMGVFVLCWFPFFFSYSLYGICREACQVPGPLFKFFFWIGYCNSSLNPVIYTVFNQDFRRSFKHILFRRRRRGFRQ

CC[C@@H](CO)NC(=O)[C@@H]1C=C2c3cccc4[nH]c(C(F)(F)F)c(c34)C[C@H]2N(C)C1 [2-CF3-sergide]
Activity (Agonism: EC50; Antagonism: IC50), Orexin (OX1/OX2) (Orexin (OX1/OX2)): Inactive
IC50 (Neurokinin (NK1/NK2/NK3)): > 1000 nM
EC50 (Serotonin 5-HT2A): 1100 nM
IC50 (Dopamine D3; CHO-K1 human receptor membranes, antagonist mode, read-out: Activity (Antagonism: IC50), D3): > 1000 nM
Receptor activity at the D3 dopaminergic receptor (in words) (Dopamine D3; summary of Table 2): receptor antagonism
Activity (Agonism: EC50; Antagonism: IC50), Somatostatin (SST1~SSTS) (Somatostatin (SST1~SSTS)): Inactive
EC50 (Serotonin 5-HT1D): 98 nM
Activity (Agonism: EC50; Antagonism: IC50), Opioid (OP1/OP2/OP3) (Opioid (OP1/OP2/OP3)): Inactive
IC50 (Serotonin 5-HT2B; CHO-K1 mAeq Gα16, human receptor, antagonist mode, read-out: Activity (Antagonism: IC50), 5-HT2B): 42 nM
Receptor activity at the 5-HT2B receptor (in words) (Serotonin 5-HT2B; summary of Table 2): full receptor antagonism
IC50 (Serotonin 5-HT3): > 1000 nM
EC50 (Serotonin 5-HT1A; CHO-K1 human receptor membranes, agonist mode, read-out: Activity (Agonism: EC50), 5-HT1A): 258 nM
Receptor activity on the 5-HT1A receptor (in words) (Serotonin 5-HT1A; summary of Table 2): agonistic activity
EC50 (Dopamine D1): 257 nM
IC50 (Adrenergic α2B): > 1000 nM
EC50 (Serotonin 5-HT1F): 254 nM
Activity (Agonism: EC50; Antagonism: IC50), Calcitonin (CGRP) (Calcitonin (CGRP)): Inactive
IC50 (Adrenergic α2C): > 10000 nM
Activity (Agonism: EC50; Antagonism: IC50), Adenosine A2a (Adenosine A2a): Inactive
Activity (Agonism: EC50; Antagonism: IC50), Calcitonin (AM1/AM2) (Calcitonin (AM1/AM2)): Inactive
IC50 (Dopamine D4; CHO-K1 human receptor membranes, antagonist mode, read-out: Activity (Antagonism: IC50), D4): > 1000 nM
Receptor activity at the D4 dopaminergic receptor (in words) (Dopamine D4; summary of Table 2): receptor antagonism
Activity (Agonism: EC50; Antagonism: IC50), VIP/PACAP (PAC1/VPAC/VPAC2) [1]: Inactive
IC50 (Adrenergic α1A): > 10000 nM
IC50 (Adrenergic α1D): 38 nM
EC50 (Serotonin 5-HT1B): 128 nM
IC50 (Adrenergic α2A): > 10000 nM
IC50 (Dopamine D2L; CHO-K1 human receptor membranes, antagonist mode, read-out: Activity (Antagonism: IC50), D2L): > 1000 nM
Receptor activity at the D2L dopaminergic receptor (in words) (Dopamine D2L; summary of Table 2): receptor antagonism
Activity (Agonism: EC50; Antagonism: IC50), Cholecystokinin (CCK1/CCK2) [2]: Inactive
EC50 (mGlu7): 46.5 nM
IC50 (Adrenergic α1B): > 1000 nM
